“And” between values parts separate entries of the source, which are not always exact repeats. Equal values may be shown once.
Legend:
[1] = single dose 250 kBq per kg body weight; cited from earlier work
PC-3 = experiment: WST-1 based proliferation assay, PC-3; type: cell-based, human; settings: WST-1, days 1-5
Procedure: (§1) The effects of PI3K inhibitor Compound A1 and radium 223 in MCF-7 and 4T1 breast cancer cells and PC-3 and LNCaP prostate cancer cells were investigated in vitro as single agent and in combination. The effects were studied by measuring cell proliferation and apoptosis. Radium 223 and the reference inhibitor doxorubicin were added at day 0. The PI3K inhibitor(s) was added at day −1 (24 hours before addition of Alpharadin) and at day 4. The following two concentrations of the inhibitors and two concentrations of radium 223 in 4 replicates were tested:
(§2) The effects on cell proliferation were studied using a WST-1 based proliferation assay and the effects on apoptosis were studied in parallel plates by measuring caspase 3/7 activity. The measurements were performed at 4 different time points, days 1, 2, 3 and 5. Caspase activity was normalized to the cell number obtained with the WST-1 assay in parallel plates.

MCF-7 [2] = experiment: Caspase 3/7 apoptosis assay, MCF-7; type: cell-based, human; settings: caspase 3/7 normalized to WST-1, day 2
Procedure: as §1, §2

[3] = tested on: LNCaP prostate cancer cells in bone; experiment: Orthotopic LNCaP CRPC bone model in mice; type: in vivo; settings: for Tumor growth (effect in words): LNCaP CRPC model; for Number of osteoclasts at tumor-bone interface (effect in words): TRAP staining; for Inhibition of progression of osteoblastic lesions / Growth/progression of osteoblastic lesions (effect in words): x-ray radiography; for Growth/progression of osteoblastic lesions (effect in words): lesion area
Excerpt: The monotherapy and the combination of compound A1 and radium 223 were further tested in an orthotopic model of LNCaP, a CRPC cell line in mice. The LNCaP cells are known to form osteoblastic and mixed lesions when inoculated to bone marrow cavity. We used this model for testing the effects of compound A1 and radium-223 as single agent and in combination on the growth of LNCaP prostate cancer cells in bone. The osteoblastic bone metastases was visualized by X-ray radiography about six weeks post tumor cell inoculation. Mice with established bone metastases were randomized and treated for 45 days. The following four experimental groups with 13-14 mice in each were included in the study:
1) Vehicle control (Compd A1 vehicle QD po)
2) Ra-223 300 kBq/kg (dosed twice at 4-week intervals)+vehicle QD po
3) Compd A1 75 mg/kg (po QD)
Body weights were determined twice a week. Blood samples were taken and the animals radiographed biweekly. The animals were sacrificed 45 days after dosing, or earlier if they were moribund. Terminal blood samples were taken. Tissue samples were collected and processed for gamma-counter measurements, microCT measurements and histomorphometry.

[4] = tested on: patients with bone metastases; settings: cited from earlier work
LNCaP = experiment: WST-1 based proliferation assay, LNCaP; type: cell-based, human; settings: for LNCaP cell proliferation (effect in words): WST-1, days 1-5
Procedure: as §1, §2

4T1 = experiment: WST-1 based proliferation assay, 4T1; type: cell-based, mouse; settings: for 4T1 cell proliferation at lower dose (effect in words): lower (250 nM) dose
Procedure: as §1, §2

[5] = tested on: 4T1-GFP-fluorescent mouse breast cancer cells; experiment: 4T1-GFP syngeneic breast cancer bone metastasis model in mice; type: in vivo, Balb/c mice; settings: for Survival Days after Treatment, Average: average of 10 survival animals; for Survival Days after Treatment, Average / Survival Days after Treatment: radium 223 300 kBq/kg iv once, Compound A1 75 mg/kg po QD; for Survival Days after Treatment: individual survival animals 1-10; for Adrenal glands with metastasis / Ovaries with metastasis / Kidneys with metastasis: non-survival animals sacrificed at day 12 or 13; for Kidneys with metastasis: macroscopic findings and fluorescence imaging
Procedure: The monotherapy and the combination of compound A1 and radium 223 were tested in a syngeneic animal model that resembles the characteristics of breast cancer bone metastatic disease in humans. This model can be effectively used for testing the effects of cancer drug candidates on the metastasis of breast cancer cells to bone.
To this extend, 4T1-GFP-fluorescent mouse breast cancer cells were inoculated into the left cardiac ventricle of 4-5 weeks old female Balb/c mice. Within one-two weeks after the inoculation, the animals developed osteolytic bone metastases that can be visualized by GFP-fluorescence and X-ray radiography.
On day 7 post tumor cell inoculation, animals were randomized according to radiography and presence of tumor metastases. On day 7, animals were dosed with a single dose of radium 223 or vehicle, daily dose of PI3K inhibitor or a combination treatment with single dose of radium 223 and daily continuous dosing of PI3K inhibitor. Half of the animals (n=10) from each treatment group were sacrificed on day 13 after inoculation, or earlier when they were moribund, half of the animals (N=10) were sacrificed when they became moribund. The osteolytic lesions and whole body tumor burden were measured by x-ray and fluorescence imaging at sacrifice. Furthermore, tissue samples from the left and right tibia and femur were collected for further histomorphometric analysis. Tissue was embedded in paraffin for histomorphometric analysis of bone and tumor area.
Groups: Control group (vehicle) received Alpharadin vehicle (sodium citrate buffer), iv once and PEG/Wfi 60:40 pH 4.0, po QD; radium 223 group was given at 300 kBq/kg of radium 223, iv once and PEG/Wfi 60:40 pH 4.0, po QD; PI3K group was given 75 mg/kg of Compound A1, po QD and radium 223 vehicle, iv once; the combination group was given 300 kBq/kg of radium 223, iv once and 75 mg/kg of Compound A1, po QD;

MCF-7 [6] = experiment: WST-1 based proliferation assay, MCF-7; type: cell-based, human; settings: WST-1, days 1-5
Procedure: as §1, §2

[7] = tested on: patients with CRPC (Castration Resistant Prostate Cancer) and bone metastases; settings: cited from earlier work
[8] = fluorescence imaging at sacrifice

| Compound | PC3 cell proliferation (effect in words) (PC-3) | MCF-7 apoptosis induction / tumor cell death (effect in words) (MCF-7 [2]) | Tumor growth (effect in words) [3] | Number of osteoclasts at tumor-bone interface (effect in words) [3] | Inhibition of progression of osteoblastic lesions [3] [%] | Growth/progression of osteoblastic lesions (effect in words) [3] | 4T1 cell proliferation at lower dose (effect in words) (4T1) | Survival Days after Treatment, Average [5] [days] | Whole body tumor burden (effect in words) [5, 8] | Survival Days after Treatment [5] | Adrenal glands with metastasis [5] [%] | Ovaries with metastasis [5] [%] | Kidneys with metastasis [5] [%] | MCF-7 cell proliferation (effect in words) (MCF-7 [6]) | LNCaP cell proliferation (effect in words) (LNCaP) | other results |
| --- | --- | --- | --- | --- | --- | --- | --- | --- | --- | --- | --- | --- | --- | --- | --- | --- |
| [Cl][223Ra][Cl] [radium 223, radium-223 dichloride] | moderate inhibition | could not induce tumor cell death | potently inhibited | eradicated | 56 | significantly inhibited | only moderate inhibition | 6.8 | not statistically significant | 8 days (4×) and 6 days (6×) | 94 | 94 | 22 | only slight inhibition | – | Observed adverse reactions [1]: diarrhea and reversible myelosuppression; Number of osteoclasts at tumor-bone interface (effect in words) ([3]; listed as Ra-223): decreased; Disease-related biomarkers (bone ALP, PSA) ([4]; Phase 2 studies): improves disease-related biomarkers; Pain ([4]; Phase 2 studies): reduces pain; Safety profile ([4]; phase 1 and 2 studies): favorable safety profile, with minimal myelotoxicity; LNCaP cell proliferation at high dose (effect in words) (LNCaP; high dose (1600 Bq/mL)): effective; 4T1 cell proliferation at higher dose (effect in words) (4T1; higher dose): strong anti-proliferative effects; Median survival longer than placebo ([7]; in vivo): 2.8 months; Time to first skeletal-related event ([7]; in vivo): significantly prolonged; Reduction in risk of death compared with placebo ([7]; overall survival): 30.5% |
| COc1cccc2c1C(=O)c1c(O)c3c(c(O)c1C2=O)C[C@@](O)(C(=O)CO)C[C@@H]3O[C@H]1C[C@H](N)[C@H](O)[C@H](C)O1 [doxorubicin] | inhibited proliferation | – | – | – | – | – | – | – | – | – | – | – | – | inhibited proliferation | inhibited proliferation | 4T1 cell proliferation (effect in words) (4T1; WST-1, days 1-5): inhibited proliferation |
| COc1c(OC[C@H](O)CN2CCOCC2)ccc2c1N=C(NC(=O)c1cccnc1C)N1CCN=C21 [Compound A1, N-(8-{[(2R)-2-hydroxy-3-(morpholin-4-yl)propyl]oxy}-7-methoxy-2,3-dihydroimidazo[1,2-c]quinazolin-5-yl)-2-methylpyridine-3-carboxamide] | better anti-proliferactive activity | only at high dose can induce apoptosis | potently inhibited | decreased | 50 | significantly inhibited | only moderate inhibition | 6.6 | significantly decreased | 6 days (5×) and 4 days and 8 days (4×) | 61 | 56 | 17 | potent anti-proliferative activity | strong anti-proliferative effects | Whole body tumor burden reduction ([5]; fluorescence imaging at sacrifice, day 13 after inoculation, 6 days of treatment): 67%; Whole body tumor burden (effect in words) ([5]; fluorescence imaging at sacrifice, listed as compound A1): decreased; Reduction of kidney metastases ([5]; frequency of soft tissue metastases): 73%; Relative tumor area in bone marrow area (effect in words) ([5]; histomorphometry, ANOVA p=0.099477): Trends of inhibition; Reduction in total osteolytic area ([5]; radiography at sacrifice): 53.2%; Total osteolytic area / tumor-induced osteolysis (effect in words) ([5]; radiography at sacrifice): strongly inhibited |

— patent publication US10124007B2, “Combination of PI3K-inhibitors” (BAYER PHARMA AKTIENGESELLSCHAFT, priority 2013, dated 2018)
